The values below come from patent publication US20220380309A1, “CHOLINE METABOLISM INHIBITORS” (President and Fellows of Harvard College, priority 2018, published 2022).

Like-named read-outs stand apart in the source and are kept apart here.

Assay [1] relates to E. coli MS 200-1. In words: Inhibition of TMA production in whole cells (LC-MS/MS assay for choline TMA-lyase activity, d9-TMA from d9-choline). The class given is cell-based.
The target in assay [2] is CutC (Oleidesulfovibrio alaskensis, UniProt Q30W70). In words: biochemical. Type of assay: biochemical.
The mark [3] stands for this setting: Escherichia coli, MS2001, Table 3, TMA generation, 1 mM choline-d9, anaerobic, 3.5 h, 37° C., read-out: EC50 against E. coli MS200-1.
Setting [4] is: Escherichia coli, MS2001, Table 2, inhibition of TMA-d9 production, 1 mM choline-d9, anaerobic, 3.5 hrs, 37° C., read-out: EC50.
The mark [5] stands for this setting: Table 3, TMA generation, 1 mM choline-d9, anaerobic, 3.5 h, 37° C., read-out: EC50 against E. coli MS200-1.
[6] abbreviates: Escherichia coli, MS2001, 3.5 h, read-out: EC50 against E. coli MS200-1.

Sequence of CutC (Q30W70 whole entry): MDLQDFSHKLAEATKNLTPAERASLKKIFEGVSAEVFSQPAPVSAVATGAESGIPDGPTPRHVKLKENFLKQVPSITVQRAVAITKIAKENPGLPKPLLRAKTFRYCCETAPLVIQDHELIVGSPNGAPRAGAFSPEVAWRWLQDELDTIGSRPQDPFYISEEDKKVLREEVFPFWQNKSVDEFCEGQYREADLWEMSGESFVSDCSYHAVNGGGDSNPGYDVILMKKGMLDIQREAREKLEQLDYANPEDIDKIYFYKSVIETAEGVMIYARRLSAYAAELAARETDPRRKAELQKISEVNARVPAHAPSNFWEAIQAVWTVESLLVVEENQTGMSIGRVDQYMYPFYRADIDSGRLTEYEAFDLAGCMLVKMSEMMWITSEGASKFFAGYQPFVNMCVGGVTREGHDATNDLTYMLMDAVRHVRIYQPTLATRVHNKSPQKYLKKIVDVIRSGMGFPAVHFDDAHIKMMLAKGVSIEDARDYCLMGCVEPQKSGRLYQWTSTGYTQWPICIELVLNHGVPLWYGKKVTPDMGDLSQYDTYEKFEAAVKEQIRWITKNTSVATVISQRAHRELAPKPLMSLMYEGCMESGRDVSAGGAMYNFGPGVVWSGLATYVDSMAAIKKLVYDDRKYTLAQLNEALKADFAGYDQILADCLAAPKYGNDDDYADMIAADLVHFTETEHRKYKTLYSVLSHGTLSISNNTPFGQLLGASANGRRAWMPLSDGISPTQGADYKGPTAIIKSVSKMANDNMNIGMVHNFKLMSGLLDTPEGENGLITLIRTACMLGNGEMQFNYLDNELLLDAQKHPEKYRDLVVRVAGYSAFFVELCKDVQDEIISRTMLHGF

In assay [1] (Escherichia coli, MS2001, Table 3, TMA generation of E. coli MS200-1, 100 μM compound), `COC1CCCCC1N1CC=CC(O)C1` (stereo not shown) displayed an inhibition at 100 µM of 40%.
For the compound `COc1ccc(CN2CC=C[C@H](O)C2)cc1`, the EC50 in assay [1] (setting [3]) was 383 µM.
Regarding `OC1C=CCN(C2CCC2)C1` (stereo not shown) [Compound 1], the EC50 in assay [1] (setting [4]) stood at 154 µM.
Consider `OC1C=CCN(Cc2ccco2)C1` (stereo not shown), for which, in assay [1] (setting [3]), the EC50 was found to be 197 µM.
As to `CN1CC=CC(O)C1` (stereo not shown) [drawing 110], the half-maximal effective concentration (EC50) in assay [1] (setting [5]) came out at 10 µM.
As to `O[C@@H]1C=CCCC1`, the EC50 in assay [1] (setting [6]) is 404 µM.
Turning to `OC1C=CCN(C2CCCCC2)C1` (stereo not shown) [drawing 150], in assay [1] (setting [3]), the EC50 was found to be 22 µM.
Consider `OC1C=CCN(C2CCC2)C1` (stereo not shown) [drawing 137], for which the concentration giving a half-maximal response (EC50) in assay [1] (setting [3]) amounted to 192 µM.
Turning to `CC1CCCC1N1CC=C[C@H](O)C1` (stereo partly shown) [drawing 144], in assay [1] (setting [6]), the concentration giving a half-maximal response (EC50) turned out to be 9 µM.
As to `O[C@H]1C=CCOC1`, in assay [1] (setting [3]), the EC50 came out at 112 µM.
For the compound `CC1CCCCC1N1CC=C[C@@H](O)C1` (stereo partly shown) [drawing 155], the EC50 in assay [1] (setting [3]) came out at 68 µM.
As for `CC1=CC(O)CN(C)C1` (stereo not shown) [drawing 186], the IC50 in assay [2] (read-out: IC50 CutC) worked out at 422 µM.
For `OC1C=CCN(Cc2cccs2)C1` (stereo not shown), in assay [1] (setting [3]), the concentration giving a half-maximal response (EC50) came to 225 µM.
For `OC1C=CCOC1` (stereo not shown) [Compound 22], in assay [1] (setting [4]), the half-maximal effective concentration (EC50) came out at 25 µM.
As to `CN1CCC(O)CC1` [Compound 15], the EC50 in assay [1] (setting [4]) was found to be 4400 µM.
As for `CC(=O)OC1C=CCN(C)C1` (stereo not shown), the EC50 in assay [1] (setting [3]) was 1790 µM.
Take `CC1=CCCCC1O` (stereo not shown): the EC50 in assay [1] (setting [3]) was determined as 3800 µM.
Turning to `O[C@@H]1C=CCN(C2CCCC2)C1`, the concentration giving a half-maximal response (EC50) in assay [1] (setting [3]) is 62 µM.
For the compound `OC1C=CCN(C2CCCCC2)C1` (stereo not shown) [Compound 3], the 50% effective concentration (EC50) in assay [1] (setting [4]) is 20 µM.
Turning to `CCCN1CC=CC(O)C1` (stereo not shown) [drawing 187], the 50% inhibitory concentration (IC50) in assay [2] (read-out: IC50 CutC) was found to be 141 µM.
As for `O[C@@H]1C=CCN(C2CCCCC2)C1` [drawing 152], the EC50 in assay [1] (setting [3]) was 108 µM.
Still for that read-out and setting: as for `OC1C=CCN(C2CCCC2)C1` (stereo not shown) [drawing 140], the figure is 42 µM; as for `O[C@H]1C=CCN(C2CCC2)C1`, 116 µM.
On to `CC1CCCCC1N1CC=C[C@H](O)C1` (stereo partly shown) [Compound 10], for which the 50% effective concentration (EC50) in assay [1] (setting [4]) stood at 1.2 µM.
Turning to `C[N+]1(C)CC=CC(O)C1` (stereo not shown) [Compound 25], the EC50 in assay [1] (setting [4]) is 10 µM.
On to `CN1CCC(O)CC1` [drawing 179], for which the IC50 in assay [2] (read-out: IC50 CutC) was determined as 7010 µM.
In assay [2], `CC(C)N1CC=CC(O)C1` (stereo not shown) [drawing 191] displayed an IC50 of 110 µM.
In assay [1] (Escherichia coli, MS2001, Table 3, TMA generation of E. coli MS200-1, 3 mM compound), `OC1C=CCN(Cc2ccccn2)C1` (stereo not shown) showed an inhibition at 3000 µM of 96%.
In the case of `OC1C=CCN(CC2CC2)C1` (stereo not shown) [drawing 188], in assay [2], the midpoint of inhibition, the IC50, lay at 76 µM.
Turning to `CN1CC=C[C@H](O)C1` [Compound 12], in assay [1] (Table 2, inhibition of TMA-d9 production, 1 mM choline-d9, anaerobic, 3.5 hrs, 37° C., read-out: EC50), the concentration for a half-maximal effect (EC50) was 10 µM.
With `OC1C=CCN(CC2CC2)C1` (stereo not shown) [drawing 120], the half-maximal effective concentration (EC50) in assay [1] (setting [3]) amounted to 252 µM.
The compound `CN1CCCC1CO` (stereo not shown) [drawing 200] showed an IC50 in assay [2] of 513 µM.
On to `CCCN1CC=CC(O)C1` (stereo not shown) [drawing 118], for which the 50% effective concentration (EC50) in assay [1] (setting [3]) is 196 µM.
For the compound `C[N+]1(C)CC=C[C@H](O)C1`, the EC50 in assay [1] (setting [3]) is 9 µM.
`O[C@H]1C=CCN(C2CCCCC2)C1` [drawing 151]: the 50% effective concentration (EC50) in assay [1] (setting [3]) came out at 14 µM.
On the same count and under the same terms, as for `C[N+]1(C)CC=C[C@@H](O)C1`, the figure is 22 µM.
For the compound `OC1C=CCN(C2CCCCCC2)C1` (stereo not shown) [drawing 197], half-maximal inhibition in assay [2] (IC50) was put at 14 µM.
`C=CC(O)CN(C)C` (stereo not shown) [drawing 201] had an IC50 in assay [2] of 23 µM.
On to `OC1C=CCN(Cc2ccsc2)C1` (stereo not shown), for which the concentration for a half-maximal effect (EC50) in assay [1] (setting [3]) was found to be 260 µM.
With `CC1CCCCC1N1CC=CC(O)C1` (stereo not shown) [Compound 6], the EC50 in assay [1] (setting [4]) turned out to be 2 µM.
For the compound `COc1ccc(CN2CC=C[C@@H](O)C2)cc1`, the concentration for a half-maximal effect (EC50) in assay [1] (setting [3]) amounted to 141 µM.
Take `CN1CCC[C@H]1CO` [Compound 20]: the EC50 in assay [1] (setting [4]) came out at 280 µM.
On to `CN1CCC(=O)C1`, for which the EC50 in assay [1] (setting [3]) is more than 30000 µM.
On the same count and under the same terms, as for `O[C@@H]1C=CCN(Cc2cccs2)C1`, the figure is 213 µM.
Consider `CN1CCCCC1CN` (stereo not shown) [Compound 17], for which the EC50 in assay [1] (setting [4]) was 120 µM.
Same read-out and setting: as for `CN1CCCC1CO` (stereo not shown) [Compound 19], the figure is 250 µM.
As for `CC1CCCCC1N1CC=C[C@H](O)C1` (stereo partly shown) [drawing 154], in assay [1] (setting [3]), the EC50 came to 12 µM.
As for `CC1=CC(O)CN(C)C1` (stereo not shown) [drawing 117], the 50% effective concentration (EC50) in assay [1] (setting [3]) was determined as 923 µM.
Regarding `CN1CCC(O)CC1` [drawing 108], in assay [1] (setting [3]), the EC50 was determined as 4470 µM.
For the compound `[2H]C1(O)C=CCN(C)C1` (stereo not shown), in assay [1] (setting [5]), the concentration for a half-maximal effect (EC50) turned out to be 30 µM.
Turning to `CC1CCCC(N2CC=CC(O)C2)C1` (stereo not shown), the half-maximal effective concentration (EC50) in assay [1] (setting [3]) was 17 µM.
Take `CN1CCCC(O)CC1` (stereo not shown) [drawing 180]: in assay [2] (read-out: IC50 CutC), the IC50 is 2600 µM.
Compound `OC1C=CCN(CC2CCCCC2)C1` (stereo not shown) [drawing 189] displayed an IC50 in assay [2] of 24 µM.
For `CN1CCCCC1CO` (stereo not shown), the concentration for a half-maximal effect (EC50) in assay [1] (setting [3]) is 120 µM.
On the same count and under the same terms, as for `CN1CCC[C@H]1CO` [drawing 171], the figure is 185 µM.
The same measure, in the same setting: as for `OC1C=CCN(Cc2ccccc2)C1` (stereo not shown) [drawing 124], the figure is 367 µM.
Regarding `OC1C=CCN(Cc2ccccc2)C1` (stereo not shown) [drawing 190], the half-maximal inhibitory concentration (IC50) in assay [2] (read-out: IC50 CutC) is 100 µM.
For `OC1C=CCN(C2CCCC2Cl)C1` (stereo not shown), the EC50 in assay [1] (setting [6]) is 52 µM.
